Reference: patent US12275734B1, “Pleuromutilin onium salt derivative containing a 3H-imidazo[4,5-c]pyridine side chain, and a preparation method and application thereof” (SHAANXI UNIVERSITY OF SCIENCE AND TECHNOLOGY, priority 2024, dated 2025)
Converted amounts (≈) assume the structure as drawn. Read-outs that look alike come from different tables or passages of the source.

What was measured:
Assay type in all cases: cell-based
[1] = tested on: M. hyopneumoniae J, NCTC10110; experiment: Anti-mycoplasma MIC; conditions: Mesomycoplasma hyopneumoniae
Protocol: (§1) The antimycoplasma activity was quantified using the […]. Retapamulin was used as a positive control to test the minimum inhibitory concentration of 3H-imidazo[4,5-C]pyridine pleuromutilin onium salt derivatives.
(§2) (1) Preparation of KM2 medium: Weigh 38.9 g of KM2 medium, add it to 800 mL of distilled water, boil to dissolve, sterilize under high pressure at 115° C. for 20 min, and set aside.
(§3) (2) Preparation of bacterial stock solution: Take 0.5 mL of Mhp-J^a, Mhp-LH^b, Mhr-BTS-7^c, MG-R^d, MS-WVU1853^e, MP-M129^f, CP-AR-39^g, CP-CWL-029^h, CP-TW-183^i, MH-PG-21^j, MG-G37^k cultured to the logarithmic phase and transfer it to 4.5 mL of KM2 liquid culture medium. When the culture medium turns yellow, divide each bacterium into 0.5 mL per tube and store it at −70° C. as bacterial stock solution.
(§4) (3) Determination of bacterial titer (color change unit, CCU): Take out the bacterial stock solution stored at −70° C., melt and balance to room temperature, add 0.18 mL KM2 medium to each well of the middle 4 rows of the 96-well plate (i.e. 4 parallels), take 0.02 mL and add it to the first column, dilute 10 times to 10^−11, and set up a negative control containing only KM2 medium (12th column). After sealing, put it in a 37° C. incubator and observe the results every day. The highest dilution at which the color of the medium changes is the CCU/mL of the strain.
(§5) Take an appropriate amount of seed bacterial solution and dilute it to 10^4 CCU/mL in turn according to its titer. Add drugs of each dilution in a 96-well plate in turn, and then add an equal amount of diluted bacterial solution. Set 200 μL of diluted mycoplasma bacterial solution as a positive control, 200 μL of KM2 liquid culture medium as a negative control, and set a solvent control group (10 μL of drug solvent+190 μL of mycoplasma bacterial solution). Each experiment is set up in 3 parallels. After all culture plates are sealed, they are cultured at 37° C., observed daily, and the final MIC value is recorded.

[2] = tested on: M. hyorhinis BTS-7, NCTC10130; experiment: Anti-mycoplasma MIC; conditions: Mesomycoplasma hyorhinis
Protocol: as §1, §2, §3, §4, §5

[3] = tested on: M. galliscepticum, NCTC10115; experiment: Anti-mycoplasma MIC; conditions: read-out: Antimycoplasma activity (MIC) MG-R^d
Protocol: as §1, §2, §3, §4, §5

[4] = tested on: C. pneumoniae AR39, ATCC53592; experiment: Anti-mycoplasma MIC; conditions: Chlamydia pneumoniae
Protocol: as §1, §2, §3, §4, §5

[5] = tested on: multidrug-resistant Pseudomonas aeruginosa-126; experiment: MIC, clinical isolates
Protocol: (§6) The minimum inhibitory concentration of 3H-imidazo[4,5-C]pyridine pleuromutilin onium salt derivatives against the tested pathogenic microorganisms were determined by broth microdilution method, with valnemulin and retapamulin as positive controls.
(§7) The experimental strains included resistant Gram-positive bacteria: Methicillin-resistant S. aureus ATCC 33591; Methicillin-resistant S. aureus ATCC 43300; S. aureus ATCC 29213; Methicillin-resistant S. epidermidis ATCC 51625. Resistant Gram-negative bacteria: A. baumannii ATCC 19606; S. enterica ATCC14028; E. coli ATCC 25922; E. coli CMCC 44103. 9 clinically isolated resistant strains: MRSA-171; MRSA-575; MRSA-206; MRSA-222; MRSA-596; VRE-80; MDR-PA-126; MDR-KP-893; CR-AB-882.
(§8) (1) Preparation of MHB medium: Weigh 18.0 g of MHB medium pre-made powder, add it to 1 L of distilled water, heat and boil until completely dissolved, divide it into conical bottles, sterilize it by high pressure at 121° C. for 15 minutes, and set aside.
(§9) (2) Cultivate the experimental strain to the logarithmic growth phase: Under sterile conditions, inoculate the experimental strain into fresh MHB medium and culture it in a 37° C. constant temperature and humidity incubator for 16-24 hours. Adjust the bacterial solution concentration to 1.5×10^8 CFU/mL and then dilute it 200 times for later use.
(§10) (3) Preparation of storage solution: Weigh the sample to be tested, dissolve it in 1% DMSO solution, and prepare a storage solution with a concentration of 2560 μg/mL; weigh the positive control, dissolve it in sterile distilled water, and prepare a storage solution with a concentration of 2560 μg/mL.
(§11) (4) Preparation of bacterial suspension: Under sterile conditions, the experimental strain cultured to the logarithmic growth phase was calibrated to a 0.5 McFarland unit turbidity standard using MHB medium and then diluted at a ratio of 1:200 to prepare a bacterial suspension with a concentration of 5×10^5 CFU/mL for later use.
(§12) (5) Determination of MIC by two-fold microdilution method: Take a sterile 96-well plate, add 10 μL of the test compound at a concentration of 2560 μg/mL, and perform serial dilutions by the two-fold dilution method. At the same time, set up a negative control group without drug. Then add 190 μL of diluted bacterial solution to each well, so that the final bacterial solution concentration in each well is 5×10^5 CFU/mL, and incubate in a 37° C. constant temperature and humidity chamber for 24 hours.

[6] = tested on: methicillin-resistant Staphylococcus aureus-596; experiment: MIC, clinical isolates
Protocol: as §6, §7, §8, §9, §10, §11, §12

[7] = tested on: methicillin-resistant Staphylococcus aureus-575; experiment: MIC, clinical isolates
Protocol: as §6, §7, §8, §9, §10, §11, §12

[8] = tested on: methicillin-resistant Staphylococcus aureus-206; experiment: MIC, clinical isolates
Protocol: as §6, §7, §8, §9, §10, §11, §12

[9] = tested on: vancomycin-resistant Enterococcus-80; experiment: MIC, clinical isolates
Protocol: as §6, §7, §8, §9, §10, §11, §12

[10] = tested on: carbapenem-resistant Acinetobacter baumannii-882; experiment: MIC, clinical isolates
Protocol: as §6, §7, §8, §9, §10, §11, §12

[11] = tested on: multidrug-resistant Klebsiella pneumoniae-893; experiment: MIC, clinical isolates; conditions: clinical isolate MDR-KP-893
Protocol: as §6, §7, §8, §9, §10, §11, §12

[12] = tested on: methicillin-resistant Staphylococcus aureus-222; experiment: MIC, clinical isolates; conditions: MRSA / MRSE
Protocol: as §6, §7, §8, §9, §10, §11, §12

[13] = tested on: methicillin-resistant Staphylococcus aureus-171; experiment: MIC, clinical isolates
Protocol: as §6, §7, §8, §9, §10, §11, §12

## C=C[C@]1(C)C[C@@H](OC(=O)CSc2nc3cc[n+](Cc4ccc(C)cc4)cc3[nH]2)[C@]2(C)[C@H](C)CC[C@]3(CCC(=O)[C@H]32)[C@@H](C)[C@@H]1O [Compound i, 5-(4-methylbenzyl)-2-((2-(((3aR,4R,5R,7S,8S,9R,9aS,12R)-8-hydroxy-4,7,9,12-tetramethyl-3-oxo-7-vinyldecahydro-4,9a-propancyclopenta[8]cyclo-5-yl)oxy)-2-oxoethyl)thio)-3H-imidazo[4,5-C]pyridine-5-ium]
[1]; NCTC10110, M. hyopneumoniae J, read-out: Antimycoplasma activity (MIC) Mhp-J^a
  MIC: 0.02 µg/mL
[2]; NCTC10130, M. hyorhinis BTS-7, read-out: Antimycoplasma activity (MIC) Mhr-BTS-7^c
  MIC: 0.03 µg/mL
[3]; M. galliscepticum
  MIC: 0.04 µg/mL
[4]; ATCC53592, C. pneumoniae AR39, read-out: Antimycoplasma activity (MIC) CP-AR-39^g
  MIC: 0.002 µg/mL
[5]; clinical isolate MDR-PA-126, read-out: Antibacterial activity (MIC) MDR-PA^h
  MIC: 4 µg/mL
[6]; clinical isolate MRSA-596, read-out: Antibacterial activity (MIC) MRSA^f
  MIC: 2 µg/mL
[7]; clinical isolate MRSA-575, read-out: Antibacterial activity (MIC) MRSA^c
  MIC: 1 µg/mL
[8]; clinical isolate MRSA-206, read-out: Antibacterial activity (MIC) MRSA^d
  MIC: 1 µg/mL
[9]; clinical isolate VRE-80, read-out: Antibacterial activity (MIC) VRE^g
  MIC: 4 µg/mL
[10]; clinical isolate CR-AB-882, read-out: Antibacterial activity (MIC) CR-AB^j
  MIC: 4 µg/mL
[11]
  Antibacterial activity (MIC) MDR-KP^i: 2 µg/mL
[12]; clinical isolate MRSA-222, read-out: Antibacterial activity (MIC) MRSE^e
  MIC: 4 µg/mL
[13]; clinical isolate MRSA-171, read-out: Antibacterial activity (MIC) MRSA^b
  MIC: 4 µg/mL

## C=C[C@]1(C)C[C@@H](OC(=O)CS[C@@H]2C[C@H]3CC[C@@H](C2)N3C)[C@]2(C)[C@H](C)CC[C@]3(CCC(=O)[C@H]32)[C@@H](C)[C@@H]1O [Retapamulin, reference compound]
[1]; NCTC10110, read-out: Antimycoplasma activity (MIC) Mhp-J^a
  MIC: 0.03 µg/mL (≈ 0.0579 µM)
[2]; NCTC10130, read-out: Antimycoplasma activity (MIC) Mhr-BTS-7^c
  MIC: 0.03 µg/mL (≈ 0.0579 µM)
[3]
  MIC: 0.125 µg/mL (≈ 0.241 µM)
[4]; ATCC53592, read-out: Antimycoplasma activity (MIC) CP-AR-39^g
  MIC: 0.125 µg/mL (≈ 0.241 µM)
[5]; read-out: Antibacterial activity (MIC) MDR-PA^h
  MIC: 64 µg/mL (≈ 124 µM)
[6]; MRSA, read-out: Antibacterial activity (MIC) MRSA^f
  MIC: 32 µg/mL (≈ 61.8 µM)
[7]; MRSA, read-out: Antibacterial activity (MIC) MRSA^c
  MIC: 32 µg/mL (≈ 61.8 µM)
[8]; MRSA, read-out: Antibacterial activity (MIC) MRSA^d
  MIC: 64 µg/mL (≈ 124 µM)
[9]; VRE, read-out: Antibacterial activity (MIC) VRE^g
  MIC: > 128 µg/mL
[10]; read-out: Antibacterial activity (MIC) CR-AB^j
  MIC: 64 µg/mL (≈ 124 µM)
[11]
  Antibacterial activity (MIC) MDR-KP^i: 128 µg/mL
[12]; read-out: Antibacterial activity (MIC) MRSE^e
  MIC: 128 µg/mL (≈ 247 µM)
[13]; MRSA, read-out: Antibacterial activity (MIC) MRSA^b
  MIC: 128 µg/mL (≈ 247 µM)
